What all share (type): functional
For one test, the system named is Burkholderia cepacia. Nature of the test: Antibacterial activity against Burkholderia cepacia 10 after 3 mins.
In test [1] the test system is Escherichia coli. Nature of the test: Antibacterial activity against Escherichia coli after 3 mins.
The test system of test [2] is Pseudomonas aeruginosa. In words: Antibacterial activity against Pseudomonas aeruginosa ATCC 10145 after 3 mins.
Test [3] relates to Staphylococcus aureus. Nature of the test: Antibacterial activity against Staphylococcus aureus after 3 mins.
The test system of test [4] is Staphylococcus aureus. Nature of the test: Antibacterial activity against methicillin-resistant Staphylococcus aureus 57 after 3 mins.
In test [5] the test system is Enterococcus faecalis. Nature of the test: Antibacterial activity against Enterococcus faecalis IFO 12580 after 30 seconds.
Test [6] concerns Escherichia coli. Nature of the test: Antibacterial activity against Escherichia coil NIHJ JC-2 after 30 seconds.
Test [7] relates to Pseudomonas aeruginosa. Nature of the test: Antibacterial activity against Pseudomonas aeruginosa ATCC 10145 after 30 seconds.
In test [8] the test system is Serratia marcescens. In words: Antibacterial activity against Serratia marcescens IFO 12648 after 30 seconds.
The test system of test [9] is Staphylococcus aureus. Nature of the test: Antibacterial activity against Staphylococcus aureus FDA 209P after 30 seconds.
Test [10] has as its system Staphylococcus epidermidis. Nature of the test: Antibacterial activity against Staphylococcus epidermidis ATCC 12228 after 30 seconds.
Test [11] has as its system Enterococcus faecalis. Nature of the test: Antibacterial activity against Enterococcus faecalis IFO 12580.
In test [12] the test system is Escherichia coli. In words: Antibacterial activity against Escherichia coli NIHJ JC-2,after 30 seconds.
The test system of test [13] is Serratia marcescens. Nature of the test: Antibacterial activity against Serratia marcescens IFO 12648,after 30 seconds.
Test [14] relates to Staphylococcus aureus. In words: Antibacterial activity against Staphylococcus aureus after 30 seconds.

Consider `Cl.N=C(NCc1ccc(Cl)c(Cl)c1)NC(=N)Nc1ccc(Br)cc1`, for which the Activity in the test with Burkholderia cepacia was 20 µg/mL; in the test on Escherichia coli [1], “<=10 ug ml-1”; in the test on Pseudomonas aeruginosa [2], 20 µg/mL; in the test with Staphylococcus aureus [3] it was 20 µg/mL.
Turning to `CCCCCC/N=C(N)/N=C(\N)Nc1ccc(Cl)cc1.Cl`, the Activity with Burkholderia cepacia amounted to 100 µg/mL; with Escherichia coli [1], 100 µg/mL; with Pseudomonas aeruginosa [2] it was 20 µg/mL; in the test with Staphylococcus aureus [3], 500 µg/mL.
With `Cl.N=C(NCc1ccc(Cl)c(Cl)c1)NC(=N)Nc1ccc(I)cc1`, the Activity result in the test with Burkholderia cepacia is “<=10 ug ml-1”; with Escherichia coli [1], “<=10 ug ml-1”; with Pseudomonas aeruginosa [2], “<=10 ug ml-1”; in the test on Staphylococcus aureus [3], 20 µg/mL.
`CCCCCCCCCC/N=C(N)/N=C(\N)NCc1ccc(Cl)c(Cl)c1.Cl`: the Activity with Burkholderia cepacia was 100 µg/mL; in the test with Escherichia coli [1] it was “<=10 ug ml-1”; in the test on Pseudomonas aeruginosa [2], 100 µg/mL; in the test on Staphylococcus aureus [3], 50 µg/mL.
In the case of `Cl.N=C(NCc1ccc(Cl)c(Cl)c1)NC(=N)Nc1ccc(Cl)cc1Cl`, the Activity entry in the test on Burkholderia cepacia was “<=10 ug ml-1”; with Escherichia coli [1] it was “<=10 ug ml-1”; with Pseudomonas aeruginosa [2], “<=10 ug ml-1”; in the test on Staphylococcus aureus [3], 20 µg/mL.
Take `Cl.N=C(NCc1ccc(Cl)c(Cl)c1)NC(=N)Nc1ccc(Cl)cc1`: the Activity in the test on Escherichia coli [1] stood at 50 µg/mL; with Pseudomonas aeruginosa [2], 50 µg/mL; in the test with Staphylococcus aureus [3] it was 50 µg/mL; in the test on Staphylococcus aureus [4] it was 100 µg/mL.
As to `CCCCCCCC/N=C(N)/N=C(\N)NCc1ccc(Cl)c(Cl)c1.Cl`, the Activity result was “<=10 ug ml-1” with Burkholderia cepacia; 10 µg/mL with Enterococcus faecalis [5]; 20 µg/mL in the test on Escherichia coli [6]; “<=10 ug ml-1” in the test on Escherichia coli [1]; “<=10 ug ml-1” with Pseudomonas aeruginosa [2]; 10 µg/mL in the test with Pseudomonas aeruginosa [7]. Further, the Activity was 20 µg/mL with Serratia marcescens [8], 20 µg/mL with Staphylococcus aureus [9], “<=10 ug ml-1” in the test with Staphylococcus aureus [3] and 5 µg/mL in test [10].
As for `CCCCCCCC/N=C(N)/N=C(\N)Nc1ccc(Cl)c(Cl)c1.Cl`, the Activity in the test on Escherichia coli [1], in the test with Pseudomonas aeruginosa [2] and in the test with Staphylococcus aureus [3] was 50 µg/mL each time.
As for `CCCCCC/N=C(N)/N=C(\N)NCc1ccc(Cl)cc1.Cl`, the Activity in the test on Burkholderia cepacia is 100 µg/mL; in the test on Escherichia coli [1], 100 µg/mL; with Pseudomonas aeruginosa [2], 50 µg/mL; in the test on Staphylococcus aureus [3] it was >100 µg/mL.
As for `Cl.N=C(NCc1ccc(Cl)c(Cl)c1)NC(=N)Nc1ccc(Cl)c(Cl)c1`, the values for the Activity in the test with Escherichia coli [1], in the test with Pseudomonas aeruginosa [2] and in the test with Staphylococcus aureus [3] were 10 µg/mL, 10 µg/mL and 50 µg/mL, respectively.
With `CCCCCCCCCCCC/N=C(N)/N=C(\N)NCc1ccc(Cl)c(Cl)c1.Cl`, the Activity in the test with Burkholderia cepacia is >500 µg/mL; in the test on Escherichia coli [1] it was 20 µg/mL; in the test on Pseudomonas aeruginosa [2], 100 µg/mL; with Staphylococcus aureus [3] it was 100 µg/mL.
Regarding `CCCCCC/N=C(N)/N=C(\N)Nc1ccc(Cl)c(Cl)c1.Cl`, the Activity in the test on Burkholderia cepacia is 20 µg/mL; in the test on Escherichia coli [1] it was 20 µg/mL; with Pseudomonas aeruginosa [2] it was 20 µg/mL; in the test on Staphylococcus aureus [3], 100 µg/mL.
For `CCCCCCCCCC/N=C(N)/N=C(\N)Nc1ccc(Cl)c(Cl)c1.Cl`, the Activity in the test on Burkholderia cepacia amounted to 100 µg/mL; in the test on Escherichia coli [1], 20 µg/mL; in the test with Pseudomonas aeruginosa [2], 100 µg/mL; in the test with Staphylococcus aureus [3], 100 µg/mL.
Take `CCCCCCCCCCCC/N=C(N)/N=C(\N)Nc1ccc(Cl)c(Cl)c1.Cl`: the Activity in the test with Burkholderia cepacia was >500 µg/mL; with Escherichia coli [1], 20 µg/mL; in the test on Pseudomonas aeruginosa [2], 20 µg/mL; in the test with Staphylococcus aureus [3] it was 100 µg/mL.
Take `CCCCCC/N=C(N)/N=C(\N)NCc1ccc(Cl)c(Cl)c1.Cl`: the Activity is 100 µg/mL in the test with Burkholderia cepacia, 50 µg/mL with Escherichia coli [1], 50 µg/mL with Pseudomonas aeruginosa [2] and 50 µg/mL in the test with Staphylococcus aureus [3].
Consider `N=C(NCCCCCCNC(=N)NC(=N)Nc1ccc(Cl)cc1)NC(=N)Nc1ccc(Cl)cc1` [CHLORHEXIDINE], for which the Activity with Burkholderia cepacia is >500 µg/mL; with Enterococcus faecalis [11], >160 µg/mL; with Escherichia coli [12], 80 µg/mL; with Escherichia coli [1] it was 20 µg/mL; with Pseudomonas aeruginosa [2] it was 100 µg/mL; in the test on Pseudomonas aeruginosa [7] it was 160 µg/mL. For the same compound, the Activity with Serratia marcescens [13] is 40 µg/mL; in the test with Staphylococcus aureus [3], 100 µg/mL; in the test with Staphylococcus aureus [14], >160 µg/mL; in [10] it was 40 µg/mL.
Consider `Cc1ccc(NC(=N)/N=C(\N)NCc2ccc(Cl)c(Cl)c2)cc1C.Cl`, for which the Activity in the test with Burkholderia cepacia was 20 µg/mL; in the test on Escherichia coli [1], “<=10 ug ml-1”; with Pseudomonas aeruginosa [2], “<=10 ug ml-1”; with Staphylococcus aureus [3], 20 µg/mL.
On to `Cl.N=C(NCc1ccc(Cl)c(Cl)c1)NC(=N)Nc1ccc(Cl)c(Cl)c1Cl`, for which the Activity result with Burkholderia cepacia, in the test on Escherichia coli [1], in the test on Pseudomonas aeruginosa [2] and in the test on Staphylococcus aureus [3] was “<=10 ug ml-1” in each case.

The values are drawn from ChEMBL document CHEMBL1152072, “Synthesis and structure-activity relationships of novel antiseptics” (1997).
